Data reported in patent US9782377B2, “Composition for normalization of infradian rhythm” (SUNTORY HOLDINGS LIMITED, priority 2003, dated 2017).

System: male Fischer rats
Assay: Days until circadian rhythm synchronized after 6-hour backward/forward phase change of light-and-dark cycle
Type: in vivo, rat
Details: for days required for synchronization, backward movement of the phase: 6 hours backward; for days required for synchronization, forward movement of the phase: 6 hours forward

## CCCCC/C=C\C/C=C\C/C=C\C/C=C\CCCC(=O)OC(COC(=O)CCCCCCC)COC(=O)CCCCCCC [8A8, 1,3-capryloyl-2-arachidonoyl-glycerol]
Overall conclusion on ingestion of 8A8 versus control feed
  time (days) required for synchronization: shortened
Rats of 2 months age, 8A8-compounded feed (control feed group 3.7 days)
  days required for synchronization, backward movement of the phase: 4.1 days
Rats of 2 months age, 8A8-compounded feed (control feed group 9.8 days)
  days required for synchronization, forward movement of the phase: 9.43 days
Rats of 18 months age, 8A8-compounded feed (control feed group 7.28 days)
  days required for synchronization, backward movement of the phase: 5.72 days
Rats of 18 months age, 8A8-compounded feed (control feed group 5.63 days)
  days required for synchronization, forward movement of the phase: 3.32 days
